Source: PMC9952066 (2023)

Assays:
[1] = test system: r-PQS4 (FEN1 rG4) (RNA, G4) AGGGGCCUGCGGGGACCUGGUGUGGGUGGAGUGGGGAC; assay: CD titration (loss of 265 nm ellipticity); conditions: 100 mM KCl, 12 mM NaCl; 50 mM Tris-HCl pH 7.4; RNA 5 μM; TMPyP4 added before annealing (legend: pre-folded); disrupts G4
[2] = test system: FAM-labeled FEN1 rG4 (RNA, G4) AGGGGCCUGCGGGGACCUGGUGUGGGUGGAGUGGGGAC; assay: native PAGE mobility (G4 unfolding); conditions: 100 mM KCl, 12 mM NaCl; 100 mM KCl in gel; 12% gel, 4 °C; RNA 5 μM; TMPyP4 unfolds rG4
[3] = test system: r-PQS4 (FEN1 rG4) (RNA, G4) AGGGGCCUGCGGGGACCUGGUGUGGGUGGAGUGGGGAC; assay: UV-Vis absorption shift; conditions: 100 mM KCl, 12 mM NaCl; 50 mM Tris-HCl pH 7.4; pre-folded RNA 5 μM; TMPyP4 printed as 100 mM

Measured: binding

C[n+]1ccc(-c2c3nc(c(-c4cc[n+](C)cc4)c4ccc([nH]4)c(-c4cc[n+](C)cc4)c4nc(c(-c5cc[n+](C)cc5)c5ccc2[nH]5)C=C4)C=C3)cc1
yes: all assays above
